Target: hAC2 (Homo sapiens, UniProt Q08462)
Assay: stimulation of adenylate cyclase activity, HTRF cAMP assay
Type: biochemical
Details: 25 μM forskolin alone, no Gsα, no serum; 1 mM ATP, 2 mM MgCl2, pH 7.5

hAC2, sequence (Q08462 whole entry): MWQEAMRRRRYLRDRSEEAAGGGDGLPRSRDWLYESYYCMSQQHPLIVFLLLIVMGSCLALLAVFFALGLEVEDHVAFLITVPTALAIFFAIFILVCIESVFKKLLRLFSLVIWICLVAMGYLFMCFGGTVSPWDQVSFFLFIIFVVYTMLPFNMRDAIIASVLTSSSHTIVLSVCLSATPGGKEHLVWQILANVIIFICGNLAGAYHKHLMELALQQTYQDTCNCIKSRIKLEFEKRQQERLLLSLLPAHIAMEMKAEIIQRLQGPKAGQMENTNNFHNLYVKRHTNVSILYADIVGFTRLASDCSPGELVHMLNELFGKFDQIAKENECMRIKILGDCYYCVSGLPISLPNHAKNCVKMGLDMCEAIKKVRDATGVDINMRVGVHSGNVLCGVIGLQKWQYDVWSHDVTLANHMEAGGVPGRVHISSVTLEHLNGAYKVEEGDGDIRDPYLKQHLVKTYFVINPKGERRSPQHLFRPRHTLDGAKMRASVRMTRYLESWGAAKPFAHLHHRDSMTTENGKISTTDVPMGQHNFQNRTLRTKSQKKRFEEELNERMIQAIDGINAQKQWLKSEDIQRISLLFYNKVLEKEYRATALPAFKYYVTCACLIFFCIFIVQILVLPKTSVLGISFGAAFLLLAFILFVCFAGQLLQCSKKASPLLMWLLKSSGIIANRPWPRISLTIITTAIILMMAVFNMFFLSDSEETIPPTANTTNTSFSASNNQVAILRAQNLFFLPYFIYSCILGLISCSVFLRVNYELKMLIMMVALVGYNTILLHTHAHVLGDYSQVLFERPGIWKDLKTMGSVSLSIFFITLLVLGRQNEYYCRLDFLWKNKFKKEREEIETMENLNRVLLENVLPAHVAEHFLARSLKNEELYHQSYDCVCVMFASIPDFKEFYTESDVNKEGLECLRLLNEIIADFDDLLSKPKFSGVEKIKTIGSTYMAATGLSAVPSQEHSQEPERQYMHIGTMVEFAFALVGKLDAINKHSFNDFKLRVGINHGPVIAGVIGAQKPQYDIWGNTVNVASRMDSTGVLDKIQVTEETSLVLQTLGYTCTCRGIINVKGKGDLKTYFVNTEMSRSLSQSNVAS

C=C[C@@]1(C)CC(=O)[C@]2(O)[C@@]3(C)[C@@H](O)CCC(C)(C)[C@@H]3[C@H](O)[C@H](OC(C)=O)[C@@]2(C)O1 [forskolin]
fold stimulation at 25 μM: ~ 2.4 fold
